Measured values reported in patent US20260232666A1, “COMPOSITIONS AND METHODS FOR INHIBITION OF RAS” (TheRas, Inc., priority 2023, published 2026).

Key:
[1] = target: T1, GTP-loaded KRAS4b (amino acids 1-169) G12C/C118S protein (Homo sapiens, UniProt P01116, C118S/G12C); assay: Covalent cysteine 12 modification by MALDI-TOF MS, GTP-loaded KRAS G12C; assay type: binding; conditions: 15 minutes reaction time point
T1 construct: KRAS4b (amino acids 1-169) G12C/C118S protein; made in house
Outline: (§1)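 Covalent adduct formation measured by linear-mode MALDI-TOF MS as modified peak height over summed peak heights, 15 min time point reported. Reactions: KRAS4b 1-169 G12C/C118S (1 μM, loaded with GppNHp, GTP or GDP) plus compound at 1:2.5 ratio, pH 7.3 HEPES/NaCl/MgCl2, room temperature.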

[2] = target: T2, Avi-KRAS G12C (1-169) GppNHp/RAF1 RBD-3×FLAG (52-151) (Homo sapiens, UniProt P01116, G12C); assay: Raf1 RBD-KRAS G12C-GppNHp disruption assay (protein:protein interaction HTRF); assay type: biochemical
T2 construct: Avi-KRAS G12C (1-169) GppNHp; Avi (N)
Outline: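 HTRF measuring RAF1 RBD binding to GppNHp-loaded KRAS G12C (50 nM) in Tris pH 7.5, 100 mM NaCl, 5 mM MgCl2, 10% DMSO. Compound, KRAS, RBD and detection reagents each added sequentially with 1 h room-temperature incubations; 10-point titration; excitation 320 nm, emission 615 nm; activity as % of DMSO; IC50 derived.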

[3] = target: T3, GppNHp-loaded KRAS4b (amino acids 1-169) G12C/C118S protein (Homo sapiens, UniProt P01116, C118S/G12C); assay: Covalent cysteine 12 modification by MALDI-TOF MS, GppNHp-loaded KRAS G12C; assay type: binding; conditions: 15 minutes reaction time point
T3 construct: KRAS4b (amino acids 1-169) G12C/C118S protein; made in house
Outline: as §1

| SMILES | GTP-KRAS G12C percent of modification [1] | IC50 [2] | GppNHp-KRAS G12C percent of modification [3] |
| --- | --- | --- | --- |
| C=CC(=O)N1CC[C@@H](N(C)c2nc(OC[C@@]34CCCN3C[C@H](F)C4)nc3c(F)c(-c4ccc(F)c5sc(N)c(C#N)c45)c(Cl)cc23)[C@@H]1C (atropisomer, axis not shown) [Compound 68] | A (percent of modification ≥70%) | < 500 nM | A (percent of modification ≥70%) |
| C=CC(=O)N1CC[C@@H](N(C)c2nc(OC[C@@]34CCCN3C[C@H](F)C4)nc3c(F)c(-c4ccc(F)c5sc(N)c(C#N)c45)c(Cl)cc23)[C@@H]1C (atropisomer, axis not shown) [Compound 69] | D (percent of modification <10%) | 500 to 5000 nM | D (percent of modification <10%) |
| C=CC(=O)N1CCC(N(C)c2nc(OC[C@@H]3CCCN3C3CC3)nc3c(F)c(-c4ccc(F)c5sc(N)c(C#N)c45)c(C(F)(F)F)cc23)[C@H]1C (some centres unmarked) [Compound 1] | C (10%≤percent of modification <50%) | < 500 nM | C (10%≤percent of modification <50%) |
| C=CC(=O)N1CCC(N(C)c2nc(OC[C@@]34CCCN3C[C@H](F)C4)nc3c(F)c(-c4ccc(F)c5sc(N)c(C#N)c45)c(Cl)cc23)[C@H]1CC (some centres unmarked) [Compound 2] | D (percent of modification <10%) | 500 to 5000 nM | D (percent of modification <10%) |
| C=CC(=O)N1CCC(N(C)c2nc(OC[C@@]34CCCN3C[C@H](F)C4)nc3c(F)c(-c4ccc(F)c5sc(N)c(C#N)c45)c(C(F)(F)F)cc23)[C@H]1CC (some centres unmarked) [Compound 3] | B (50≤percent of modification <70%) | < 500 nM | C (10%≤percent of modification <50%) |
| C=CC(=O)N1C[C@H]2C[C@@H]1CN2c1nc(OC[C@@]23CCCN2C[C@H](F)C3)nc2c(F)c(-c3ccc(F)c4sc(N)c(C#N)c34)c(C(F)(F)F)cc12 [Compound 37] | D (percent of modification <10%) | 500 to 5000 nM | D (percent of modification <10%) |
| C=CC(=O)N1CC[C@@H](N(CC)c2nc(OC[C@@]34CCCN3C[C@H](F)C4)nc3c(F)c(-c4ccc(F)c5sc(N)c(C#N)c45)c(C(F)(F)F)cc23)[C@H]1CC [Compound 39] | C (10%≤percent of modification <50%) | < 500 nM | C (10%≤percent of modification <50%) |
| C=CC(=O)N1CC[C@@H](N(CC)c2nc(OC[C@@]34CCCN3C[C@H](F)C4)nc3cc(-c4ccc(F)c5sc(N)c(C#N)c45)c(C#N)cc23)[C@@H]1CC [Compound 40] | D (percent of modification <10%) | 500 to 5000 nM | D (percent of modification <10%) |
| C=CC(=O)N1CC[C@@H](N(CC)c2nc(OC[C@@]34CCCN3C[C@H](F)C4)nc3cc(-c4ccc(F)c5sc(N)c(C#N)c45)c(F)cc23)[C@@H]1CC [Compound 41] | D (percent of modification <10%) | 500 to 5000 nM | D (percent of modification <10%) |
| C=CC(=O)N1CC[C@@H](N(C)c2nc(OC[C@@]34CCCN3C[C@H](F)C4)nc3cc(-c4ccc(F)c5sc(N)c(C#N)c45)c(C#N)cc23)[C@H]1CC [Compound 42] | A (percent of modification ≥70%) | < 500 nM | A (percent of modification ≥70%) |
| C=CC(=O)N1CC[C@@H](N(CC)c2nc(OC[C@@H]3C[C@@H](OC)CN3C)nc3c(F)c(-c4ccc(F)c5sc(N)c(C#N)c45)c(C(F)(F)F)cc23)[C@H]1C [Compound 45, 4-(4-(((2R,3R)-1-acryloyl-2-methylpyrrolidin-3-yl)(ethyl)amino)-8-fluoro-2-(((2S,4R)-4-methoxy-1-methylpyrrolidin-2-yl)methoxy)-6-(trifluoromethyl)quinazolin-7-yl)-2-amino-7-fluorobenzo[b]thiophene-3-carbonitrile] | B (50≤percent of modification <70%) | < 500 nM | A (percent of modification ≥70%) |
| C=CC(=O)N1CC2CC(C1)N2c1nc(OC[C@@]23CCCN2C[C@H](F)C3)nc2c(F)c(-c3ccc(F)c4sc(N)c(C#N)c34)c(C(F)(F)F)cc12 [Compound 46] | D (percent of modification <10%) | 500 to 5000 nM | D (percent of modification <10%) |
| C=CC(=O)N1CC2CCC(C1)N2c1nc(OC[C@@]23CCCN2C[C@H](F)C3)nc2c(F)c(-c3ccc(F)c4sc(N)c(C#N)c34)c(C(F)(F)F)cc12 [Compound 49] | D (percent of modification <10%) | < 500 nM | C (10%≤percent of modification <50%) |
| C=CC(=O)N1CC[C@@H](N(CC)c2nc(OC[C@@]34CCCN3C[C@H](F)C4)nc3c(F)c(-c4ccc(F)c5sc(N)c(C#N)c45)ccc23)[C@@H]1CC [Compound 50] | D (percent of modification <10%) | 500 to 5000 nM | D (percent of modification <10%) |
| C=CC(=O)N1CC[C@@H](N(CC)c2nc(OC[C@@H]3C[C@@H](F)CN3C)nc3c(F)c(-c4ccc(F)c5sc(N)c(C#N)c45)c(C(F)(F)F)cc23)[C@H]1C [Compound 52] | A (percent of modification ≥70%) | < 500 nM | B (50≤percent of modification <70%) |
| C=CC(=O)N1CC[C@@H](N(C)c2nc(OC[C@@H]3C[C@@H](F)CN3C)nc3c(F)c(-c4ccc(F)c5sc(N)c(C#N)c45)c(C(F)(F)F)cc23)[C@H]1C [Compound 55] | A (percent of modification ≥70%) | < 500 nM | A (percent of modification ≥70%) |
| C=CC(=O)N1CC[C@@H](N(CC)c2nc(OC[C@@]34CCCN3C[C@H](F)C4)nc3cc(-c4ccc(F)c5sc(N)c(C#N)c45)c(C#N)cc23)[C@@H]1C [Compound 56] | C (10%≤percent of modification <50%) | < 500 nM | B (50≤percent of modification <70%) |
| C=CC(=O)N1CC[C@@H](N(CC)c2nc(OC[C@@]34CCCN3C[C@H](F)C4)nc3c(F)c(-c4ccc(F)c5sc(N)c(C#N)c45)ccc23)[C@@H]1C [Compound 57] | C (10%≤percent of modification <50%) | < 500 nM | B (50≤percent of modification <70%) |
| C=CC(=O)N1CC[C@@H](N(CC)c2nc(OC[C@@H]3CCCN3C)nc3c(F)c(-c4ccc(F)c5sc(N)c(C#N)c45)c(Cl)cc23)[C@H]1C [Compound 58] | A (percent of modification ≥70%) | < 500 nM | A (percent of modification ≥70%) |
| C=CC(=O)N1CC[C@@H](N(C)c2nc(OC[C@@H]3CCCN3C)nc3c(F)c(-c4ccc(F)c5sc(N)c(C#N)c45)c(Cl)cc23)[C@H]1C [Compound 59] | A (percent of modification ≥70%) | < 500 nM | A (percent of modification ≥70%) |
| C=CC(=O)N1CC[C@@H](N(CC)c2nc(OC[C@@H]3C[C@@H](F)CN3C)nc3c(F)c(-c4ccc(F)c5sc(N)c(C#N)c45)c(Cl)cc23)[C@H]1C [Compound 60] | B (50≤percent of modification <70%) | < 500 nM | B (50≤percent of modification <70%) |
| C=CC(=O)N1CC[C@@H](N(C)c2nc(OC[C@@H]3C[C@@H](F)CN3C)nc3c(F)c(-c4ccc(F)c5sc(N)c(C#N)c45)c(Cl)cc23)[C@H]1C [Compound 61] | C (10%≤percent of modification <50%) | < 500 nM | C (10%≤percent of modification <50%) |
| C=CC(=O)N1CC[C@@H](N(C)c2nc(OC[C@@H]3C[C@@H](OC)CN3C)nc3c(F)c(-c4ccc(F)c5sc(N)c(C#N)c45)c(Cl)cc23)[C@H]1C [Compound 63, 4-(4-(((2R,3R)-1-acryloyl-2-methylpyrrolidin-3-yl)(methyl)amino)-6-chloro-8-fluoro-2-(((2S,4R)-4-methoxy-1-methylpyrrolidin-2-yl)methoxy)quinazolin-7-yl)-2-amino-7-fluorobenzo[b]thiophene-3-carbonitrile] | B (50≤percent of modification <70%) | < 500 nM | B (50≤percent of modification <70%) |
| C=CC(=O)N1CC[C@@H](N(C)c2nc(OC[C@@H]3CC4(CC4)CN3C)nc3c(F)c(-c4ccc(F)c5sc(N)c(C#N)c45)c(Cl)cc23)[C@H]1C [Compound 64] | B (50≤percent of modification <70%) | < 500 nM | B (50≤percent of modification <70%) |
| C=CC(=O)N1CC[C@@H](N(C)c2nc(OC[C@@H]3CCCN3CC)nc3c(F)c(-c4ccc(F)c5sc(N)c(C#N)c45)c(C(F)(F)F)cc23)[C@H]1C [Compound 88] | B (50≤percent of modification <70%) | < 500 nM | – |
